Results from patent US20200217852A1, “Quantitation of Free and Total N-Acetylcysteine Amide and Its Metabolite N-Acetylcysteine in Human Plasma Using Derivatization and Electrospray LC-MS/MS” (NACUITY PHARMACEUTICALS, INC., priority 2019, published 2020).
Where two headings read alike, the source gives them in different places.

Experiments:
[1] = Stability of underivatized NAC and NACA thiol in plasma monitored directly by HILIC LC-MS/MS; type: in vitro ADME; settings: human, room temperature, read-out: Half-lives for thiol disappearance
Experimental: Half-lives for thiol disappearance were approximately 10 minutes at room temperature. Therefore, the inventors sought to stabilize NAC and NACA by derivatization. When plasma samples spiked with NAC and NACA were treated with TCEP and CMPI, the thiols were well recovered as the thioether derivatives.
(§1) All stability testing in plasma (benchtop, freeze/thaw, and long-term storage) was performed using QC samples prepared in both CMPI-fortified plasma as well as unfortified plasma. In this manner, the stabilities of both the oxidized thiols (in disulfide forms) and the thioether derivatives were tested, since it was assumed that unknown samples would likely contain some of both species. The CMPI-thioethers were stable for at least 5 freeze/thaw cycles and for at least 20 hours at room temperature, as compared to less than 1 hour for the underivatized free thiols. The oxidized thiols were stable for at least 5 freeze/thaw cycles and for at least 22 hours, as evidenced by their full recovery as thioethers when assayed using the total method. Stability was also tested in extracts, whether held for first injection or reinjected. Extracts were stable for over 90 hours when refrigerated. Precision and accuracy was acceptable in lipemic and hemolyzed plasma.

[2] = type: in vitro ADME; settings: human
Experimental: Calibration standards (CS) were prepared by mixing CMPI-fortified control matrix (95 parts) with the respective spiking solution (5 parts) to make 50.0, 40.0, 20.0, 5.00, 2.50, 0.500, 0.100, and 0.050 μg/mL NAC/NACA pools which were stable for at least 80 days when stored at −20° C. and for 284 days when stored at −80° C. It was critical that CS pools be spiked quickly after CMPI fortification of the plasma, with the lowest concentration pools being spiked first, within 5-10 minutes of mixing plasma with CMPI.
Validation. The method was validated according to regulatory guidances. Three independently prepared analytical runs were executed to test the linearity of the calibration curve and the precision and accuracy of measuring validation samples (over 4 concentrations). Additional runs to evaluate recovery, matrix factor/suppression effects, reinjection reproducibility, and carryover were also performed. The selectivity of the method was evaluated over 10 lots of human plasma and the same lots were spiked at the mid QC level to verify inter-subject precision and accuracy. Freeze/thaw, benchtop, and autosampler stabilities were determined. Precision and accuracy data were also generated in lipemic and hemolyzed plasma lots, and stability in whole blood was tested. Long run lengths (up to 192 samples over 2 plates) were evaluated to determine whether the analytical system was reliable over twice the expected duty cycle.
as §1

half-life [1]: ~10 min
Stability of calibration standard pools ([2]; 80 days): at least 80 days
Stability of calibration standard pools ([2]; 284 days): 284 days
Structure (SMILES): CC(=O)N[C@@H](CS)C(=O)O [NAC, N-acetyl-L-cysteine]
Freeze/Thaw Stability [2]: At least 5 cycles, at either −20 °C or −80° C., either analyte
Benchtop Stability ([2]; 20 hours): At least 20 hours at room temperature, either analyte
